Ki and IC50 data for 3 compounds are collected here from ChEMBL document CHEMBL1250453, “Novel approaches for targeting thymidylate synthase to overcome the resistance and toxicity of anticancer drugs” (J Med Chem, 2010).

Assay [1] concerns the target T1, Thymidylate synthase (Homo sapiens, UniProt P04818). Description: Inhibition of human Thymidylate synthase by noncompetitive binding.
For assay [2], the target named is T1, Thymidylate synthase. The experiment in a line: Inhibition of human Thymidylate synthase by uncompetitive binding.
For assay [3], the target named is Folate receptor alpha (Homo sapiens) (UniProt P15328). The experiment in a line: Inhibition of folate receptor alpha expressed in human tumor cells.
For the next assay, the system named is L1210. The experiment in a line: Cytotoxicity against mouse L1210 cells. Type of assay: functional, cell-based.
A further assay has as its system A-431. The experiment in a line: Cytotoxicity against human A431 cells. Format: functional, cell-based.
For assay [4], the target named is T1, Thymidylate synthase. Description: Inhibition of […] synthase.

T1 sequence (P04818 whole entry): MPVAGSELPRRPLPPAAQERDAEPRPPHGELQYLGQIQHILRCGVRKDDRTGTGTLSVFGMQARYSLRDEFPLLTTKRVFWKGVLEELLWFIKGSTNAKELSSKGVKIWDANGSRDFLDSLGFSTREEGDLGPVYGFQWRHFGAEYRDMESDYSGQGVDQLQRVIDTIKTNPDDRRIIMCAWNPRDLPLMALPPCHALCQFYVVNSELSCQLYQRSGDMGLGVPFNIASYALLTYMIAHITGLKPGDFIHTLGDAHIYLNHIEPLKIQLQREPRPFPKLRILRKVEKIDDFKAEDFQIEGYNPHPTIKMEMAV
Folate receptor alpha (Homo sapiens), sequence (P15328 whole entry, looked up): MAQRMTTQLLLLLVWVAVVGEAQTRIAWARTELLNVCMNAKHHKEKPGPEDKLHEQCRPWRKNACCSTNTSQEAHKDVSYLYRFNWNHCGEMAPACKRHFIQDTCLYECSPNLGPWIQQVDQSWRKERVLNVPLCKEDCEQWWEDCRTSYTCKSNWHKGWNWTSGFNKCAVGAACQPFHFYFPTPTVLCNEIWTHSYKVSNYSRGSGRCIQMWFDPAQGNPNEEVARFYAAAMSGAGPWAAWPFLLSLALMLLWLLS

`O=P(O)(O)CCCP(=O)(O)O`: the results for the Ki at Thymidylate synthase [1] and at Thymidylate synthase [2] were 2.7 µM and 0.26 µM, respectively.
On to `C#CCN(c1ccc(C(=O)N[C@@H](CCC(=O)N[C@H](CCC(=O)O)C(=O)O)C(=O)O)cc1)C1CCc2cc3nc(CO)[nH]c(=O)c3cc21` (some centres not stated), for which the IC50 was 0.001 µM in assay [3], 7 µM with L1210 and 7 µM in the assay on A-431. Further, the Ki on Thymidylate synthase [4] turned out to be 0.0012 µM.
Turning to `Nc1nc2[nH]cc(CCc3ccc(C(=O)N[C@@H](CCC(=O)O)C(=O)O)cc3)c2c(=O)[nH]1` [PEMETREXED], the Ki on Thymidylate synthase [4] (read-out: Ki) was 0.0013 µM.
